In patent US11318103B2, “Treating soft tissue via controlled drug release” (University of Pittsburgh—Of the Commonwealth System of …, priority 2014, dated 2022):

Assays:
[1] = test system: human osteochondral plugs; assay: T3-induced calcification of human osteochondral plugs (ALP assay, real time-PCR); type: cell-based; conditions: treatment with triiodothyronine (T3), day 0 versus day 20
Text: FIG. 5 represents the outline for testing of preventing calcification. Experimental design to test the effects of triiodothyronine in inducing calcification and of dorsomorphin in inhibiting calcification in human osteochondral biopsies, an example of which is depicted on the right.
FIG. 6 is two graphs depicting ALP activity. The graphs represent the level of ALP activity in the osteochondral constructs media measured with a colorimetric ALP assay for the samples outlined in the previous figure.
Dorsomorphin has been encapsulated in PLGA-based MPs of micrometer scale dimensions. As the particles degrade, dorsomorphin is released generating a local concentration within the range required to prevent local calcification. To confirm this, human osteochondral plugs (3 mm by 3 mm by 8 mm of a cartilage and bone biopsy-like sample) have been forced to calcify using triiodothyronine (T3) and then exposed to dorsomorphin.

human chondrocytes = assay: T3-induced hypertrophy of primary chondrocytes; type: cell-based; conditions: T3 medium 14 or 21 days, maintained after exposure to chondrogenic medium
Text: FIGS. 7A-7F are microphotographs of human chondrocytes. Chondrocytes extracted from human donors have been cultured under a test medium to induce hypertrophy for 14 or 21 days followed by 14 or 7 days of chondrogenic medium, respectively. The test medium was either chondrogenic medium (negative control, no hypertrophy), medium containing triiodothyronine (T3) (hypertrophic), osteogenic medium (hypertrophic).
In autologous chondrocytes implantation (ACI) chondrocytes are implanted in a local cartilage defect. In an in vitro model of ACI based on a small osteochondral unit, as the one we use, a central cartilage defect would be filled with chondrocytes in a hydrogel. To simulate conditions of calcification, the chondrocytes will be pre-cultured in a hypertrophy inducing medium. After seeding, both native cartilage and implanted chondrocytes would be exposed to chondrogenic medium. We have previously shown that T3 induces hypertrophy in MSCs that underwent chondrogenic differentiation. […] Chondrogenic medium and osteogenic medium are used as comparison.

For `N[C@@H](Cc1cc(I)c(Oc2ccc(O)c(I)c2)c(I)c1)C(=O)O` [triiodothyronine], the “ALP activity in osteochondral constructs media” value [1] was “statistically significant (p<0.05) increase in ALP activity” and the primary chondrocytes hypertrophy (human chondrocytes) was “effective to induce primary chondrocytes hypertrophy”.
